Laboratory results reported in patent EP4782453A1 (Beyang Therapeutics Co., Ltd., priority 2023, dated 2025).

target: T1, Menin-MLL (Homo sapiens, UniProt O00255); experiment: Inhibitory activity against Menin-MLL binding (fluorescence polarization); details: Menin-MLL IC50, fluorescence polarization; 150 nM His-Menin, 15 nM FITC-MLL; 25°C for 60 min
T1 construct: His-Menin (M1-L615 end); purchased BIORTUS BP9210
T1 sequence (O00255 1-615 isoform O00255-1): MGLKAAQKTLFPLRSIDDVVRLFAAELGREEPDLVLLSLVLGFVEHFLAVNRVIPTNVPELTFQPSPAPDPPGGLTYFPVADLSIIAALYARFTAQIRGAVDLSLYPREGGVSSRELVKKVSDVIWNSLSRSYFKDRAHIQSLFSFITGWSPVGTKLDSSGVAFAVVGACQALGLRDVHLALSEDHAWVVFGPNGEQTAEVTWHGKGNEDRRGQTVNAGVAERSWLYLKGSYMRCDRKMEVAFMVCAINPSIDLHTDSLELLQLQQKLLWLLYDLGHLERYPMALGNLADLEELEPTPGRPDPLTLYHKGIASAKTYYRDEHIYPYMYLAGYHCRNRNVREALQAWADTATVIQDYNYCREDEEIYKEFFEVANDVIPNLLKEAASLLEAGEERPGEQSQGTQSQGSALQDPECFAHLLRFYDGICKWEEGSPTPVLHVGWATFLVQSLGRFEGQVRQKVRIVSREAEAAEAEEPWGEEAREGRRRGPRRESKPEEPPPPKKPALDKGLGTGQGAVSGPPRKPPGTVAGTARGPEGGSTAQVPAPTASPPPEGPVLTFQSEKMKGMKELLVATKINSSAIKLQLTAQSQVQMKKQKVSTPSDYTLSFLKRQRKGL
Method in brief: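 His-Menin (M1-L615, 150 nM) preincubated with compound 15 min at 25 °C in HEPES pH 7.5, 50 mM NaCl, 1 mM DTT, 0.01% BSA, then 15 nM FITC-MLL4-43 peptide added for 60 min at 25 °C. Fluorescence polarization read; IC50 from 4-parameter logistic fit, duplicates.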

| SMILES | IC50 |
| --- | --- |
| CCN(C(=O)c1cc(F)ccc1-c1cc(C2(F)CCN(C[C@]3(O)CC[C@@H](NS(=O)(=O)CC)CC3)C2)cc2c1cnn2C)C(C)C (stereo partly shown) [Compound 68, N-ethyl-5-fluoro-2-[6-(3-fluoro-1-{[(1s,4s)-4-ethanesulfonamido-1-hydroxylcyclohexyl]methyl}pyrrolidin-3-yl)-1-methyl-1H-indazol-4-yl]-N-(isopropyl)benzamide] | 298 nM |
| CCN(C(=O)c1cc(F)ccc1-c1cc(C2CCN(C[C@H]3CC[C@H](NS(=O)(=O)CC)CC3)C2)cn2c(C3CC3)ncc12)C(C)C (stereo partly shown) [Compound 69, 2-[3-cyclopropyl-6-(1-{[(1r,4r)-4-ethanesulfonamidocyclohexyl]methyl}pyrrolidin-3-yl)imidazo[1,5-a]pyridin-8-yl]-N-ethyl-5-fluoro-N-(isopropyl)benzamide] | 222 nM |
| CCN(C(=O)c1cc(F)ccc1-c1cc(C2(F)CCN(C[C@H]3CC[C@H](NS(=O)(=O)CC)CC3)C2)cc2c1cnn2C)C(C)C (stereo partly shown) [Compound 61, N-ethyl-5-fluoro-2-[6-(3-fluoro-1-{[(1r,4r)-4-ethanesulfonamidocyclohexyl]methyl}pyrrolidin-3-yl)-1-methyl-1H-indazol-4-yl]-N-(isopropyl)benzamide] | 58 nM |
| CCN(C(=O)c1cc(F)ccc1-c1cc(N2CCN(C(=O)[C@H]3N[C@@H]4CC[C@H]3C4)CC2)cn2c(C)ncc12)C(C)C [Example 88] | 52 nM |
| CCN(C(=O)c1cc(F)ccc1-c1cc(C2CCN(C[C@]3(O)CC[C@@H](NS(=O)(=O)CC)CC3)C2)cc2c1cnn2C)C(C)C (stereo partly shown) [Compound 55, N-ethyl-5-fluoro-2-[1-methyl-6-(1-{[(1s,4s)-4-ethanesulfonamido-1-hydroxylcyclohexyl]methyl}pyrrolidin-3-yl)-1H-indazol-4-yl]-N-(isopropyl)benzamide] | 21 nM |
| CCN(C(=O)c1cc(F)ccc1-c1cc(N2CCN(C(=O)C3NC4CCC3CC4)CC2)cn2c(C=O)ncc12)C(C)C [Example 76, N-ethyl-5-fluoro-2-(3-formyl-6-{4-[(1R,3S,4S)-2-azabicyclo[2.2.2]octan-3-carbonyl]piperazin-1-yl}imidazo[1,5-a]pyridin-8-yl)-N-(isopropyl)benzamide] | 40 nM |
| CC[C@H](C)[C@H](NC)C(=O)N1CC(c2cc(-c3ccc(F)cc3C(=O)N(CC)C(C)C)c3c(F)nc(C)n3c2)C1 [Example 316] | 99 nM |

same assay, conditions: fluorescence polarization; 150 nM His-Menin, 15 nM FITC-MLL; 25°C for 60 min; read-out: Menin-MLL IC50

| IC50 | SMILES |
| --- | --- |
| 12 nM | CCN(C(=O)c1cc(F)ccc1-c1cc(C2CN(C(C[C@H](O)CO)C(C)C)C2)cn2c(C)ncc12)C(C)C (stereo partly drawn) [Example 437, 2-(6-{1-[(5S)-5,6-dihydroxyl-2-methylhexan-3-yl]azacyclobutan-3-yl}-3-methylimidazo[1,5-a]pyridin-8-yl)-N-ethyl-5-fluoro-N-(isopropyl)benzamide] |
| 30 nM | Cc1nc(F)c2c(-c3ccc(F)cc3C(=O)N(CC(F)F)C(C)C)cc(C3CN(C(=O)[C@H]4NCC[C@@H]4C)C3)cn12 [Example 156] |
| 45.5 nM | CCS(=O)(=O)NC1CCC(CN2CCC(c3cc(-c4ccc(F)cc4C(=O)N4CCC(F)(F)CC4C)c4cnn(C)c4c3)C2)CC1 (stereo not shown) [Example 101, N-{4-[(3-{4-[2-(4,4-difluoro-2-methylpiperidin-1-carbonyl)-4-fluorophenyl]-1-methyl-1H-indazol-6-yl}pyrrolidin-1-yl)methyl]cyclohexyl}ethan-1-sulfonamide] |
| 51 nM | C=C1CN[C@H](C(=O)N2CCC(c3cc(-c4ccc(F)cc4C(=O)N(CC(F)F)C(C)C)c4cnc(C)n4c3)CC2)C1 [Example 144] |
| 89 nM | COCCN(C)CCCC(C(C)C)N1CC(Cc2cc(-c3ccc(F)cc3C(=O)N3CCOC[C@H]3C)c3cnn(C)c3c2)C1 (stereo partly shown) [Example 179] |
| 18 nM | CC(=O)N1C2CC1CN(CCC[C@H](C(C)C)N1CC(c3cc(-c4ccc(F)cc4C(=O)N4CCOC[C@H]4C)c4c(F)nc(C)n4c3)C1)C2 [Example 345] |
| 140 nM | COCCN(C)CCCC(C(C)C)N1CC(c2cc(-c3ccc(F)cc3C(=O)N(CC(F)F)C(C)C)c3cnccn23)C1 (stereo not shown) [Example 147, N-(2,2-difluoroethyl)-5-fluoro-2-[6-(1-{6-[(2-methoxyethyl)(methyl)amino]-2-methylhexan-3-yl}azacyclobutan-3-yl)pyrrolo[1,2-a]pyrazin-8-yl]-N-(isopropyl)benzamide] |
| 1.8 nM | CCN(C(=O)c1cc(F)ccc1-c1cc(C2CN([C@H](CCCN3CCC[C@H](O)C3)C(C)C)C2)cn2c(C)ncc12)C(C)C [Example 327] |
| 126 nM | CCN1CCN(CCC[C@@H](C(C)C)N2CC(c3cc(-c4ccc(F)cc4C(=O)N4CCOC[C@H]4C)c4cnc(C)n4c3)C2)CC1 [Example 324-1] |
| 190 nM | CCN(C(=O)c1cc(F)ccc1-c1cc(C2(O)CN([C@@H](CCCN3CCN(CCO)CC3)C(C)C)C2)cn2c(C)ncc12)C(C)C [Example 464-2, N-ethyl-5-fluoro-2-(6-{3-hydroxyl-1-[(3S)-6-[4-(2-hydroxylethyl)piperazin-1-yl]-2-methylhexan-3-yl]azacyclobutan-3-yl}-3-methylimidazo[1,5-a]pyridin-8-yl)-N-(isopropyl)benzamide] |
| 2690 nM | CCN(C(=O)c1cc(F)ccc1-c1cc(C2CN([C@@H](CCCN3CCN(C)CC3)C(C)C)C2)cn2c(C)nnc12)C(C)C [Example 360-2, N-ethyl-5-fluoro-2-(3-methyl-6-{1-[(3S)-2-methyl-6-(4-methylpiperazin-1-yl)hexan-3-yl]azacyclobutan-3-yl}-[1,2,4]triazolo[4,3-a]pyridin-8-yl)-N-(isopropyl)benzamide] |
| 16 nM | CC(=O)N1CCN(CCC[C@H](C(C)C)N2CC(c3cc(-c4ccc(F)cc4C(=O)N4CCOC[C@H]4C)c4c(F)nc(C)n4c3)C2)C[C@H]1C [Example 330, 1-{(2R)-4-[(4R)-4-[3-(1-fluoro-8-{4-fluoro-2-[(3R)-3-methylmorpholin-4-carbonyl]phenyl}-3-methylimidazo[1,5-a]pyridin-6-yl)azacyclobutan-1-yl]-5-methylhexyl]-2-methylpiperazin-1-yl}ethan-1-one] |
| 805 nM | CO[C@H]1CCN(CCC[C@@H](C(C)C)N2CC(c3cc(-c4ccc(F)cc4C(=O)N4CCOC[C@H]4C)c4cnn(C)c4c3)C2)C1 [Example 184-1] |
| 19.5 nM | CCC(C1CCN(C(C)=O)CC1)N1CC(c2cc(-c3ccc(F)cc3C(=O)N3CCOC[C@H]3C)c3c(F)nc(C)n3c2)C1 (stereo partly drawn) [Example 280, 1-(4-{1-[3-(1-fluoro-8-{4-fluoro-2-[(3R)-3-methylmorpholin-4-carbonyl]phenyl}-3-methylimidazo[1,5-a]pyridin-6-yl)azacyclobutan-1-yl]propyl}piperidin-1-yl)ethan-1-one] |
| 10.5 nM | CCN(C(=O)c1cc(F)ccc1-c1cc(C2CCN(C[C@H]3CC[C@H](NC(=O)OC(C)(C)C)CC3)C2)cn2c(C)ncc12)C(C)C (mixture of isomers) [Example 29, N-[(1r,4r)-4-{[3-(8-{2-[ethyl(isopropyl)aminoformyl]-4-fluorophenyl}-3-methylimidazo[1,5-a]pyridin-6-yl)pyrrolidin-1-yl]methyl}cyclohexyl]tert-butyl carbamate] |
| 33 nM | CC(=O)N1CCN(CCC[C@H](C(C)C)N2CC(c3cc(-c4ccc(F)cc4C(=O)N4CCOC[C@H]4C)c4c(F)nc(C)n4c3)C2)CC12CC2 [Example 340] |
| 17 nM | CC(=O)N1CC2CCC(C1)N2CCC[C@H](C(C)C)N1CC(c2cc(-c3ccc(F)cc3C(=O)N3CCOC[C@H]3C)c3cnn(C)c3c2)C1 [Example 383] |
| 25 nM | CCN(C(=O)c1cc(F)ccc1-c1cc(C2CCN(C[C@H]3CC[C@H](N4CCOC4=O)CC3)C2)cn2cncc12)C(C)C (stereo partly shown) [Example 47] |
| 18.5 nM | CCN(C(=O)c1cc(F)ccc1-c1cc(C2CCN(C[C@H]3CC[C@H](NC(=O)OC(C)(C)C)CC3)C2)cn2cncc12)C(C)C (mixture of isomers) [Example 21, N-[(1r,4r)-4-{[3-(8-{2-[ethyl(isopropyl)aminoformyl]-4-fluorophenyl}imidazo[1,5-a]pyridin-6-yl)pyrrolidin-1-yl]methyl}cyclohexyl]tert-butyl carbamate] |
| 42 nM | CCN(C(=O)c1cc(F)ccc1-c1cc(C2CN(C(CCCN3C[C@H]4C[C@@H]3CO4)C3(C)COC3)C2)cn2c(C)ncc12)C(C)C (stereo partly drawn) [Example 485, N-ethyl-5-fluoro-2-(3-methyl-6-{1-[1-(3-methyloxacyclobutan-3-yl)-4-[(1R,4R)-2-oxa-5-azabicyclo[2.2.1]heptan-5-yl]butyl]azacyclobut-3-yl}imidazo[1,5-a]pyridin-8-yl)-N-(isopropyl)benzamide] |

| SMILES | IC50 |
| --- | --- |
| Cc1ncc2c(-c3ccc(F)cc3C(=O)N(C)C(C)C)cc(C3CN([C@@H](CCCN4CCN(CCO)CC4)C(C)C)C3)cn12 [Example 448-1] | 120 nM |
